Reference: PubChem BioAssay (NCI)
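GI50: concentration for 50% inhibition of growth. At the TGI there is no net growth.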

Experiments:
Experiment in all cases: NCI anticancer screen, dose series, 384-well format
786-0 renal = tested on: 786-0 renal
A498 renal = tested on: A498 renal
A549 NSCLC = tested on: A549 NSCLC
CCRF-CEM leukemia = tested on: CCRF-CEM leukemia
DU-145 prostate = tested on: DU-145 prostate
HCC-2998 colon = tested on: HCC-2998 colon
HCT-116 colon = tested on: HCT-116 colon
HCT-15 colon = tested on: HCT-15 colon
HOP-92 NSCLC = tested on: HOP-92 NSCLC
K-562 leukemia = tested on: K-562 leukemia
LOX IMVI melanoma = tested on: LOX IMVI melanoma
MALME-3M melanoma = tested on: MALME-3M melanoma
MDA-MB-435 melanoma = tested on: MDA-MB-435 melanoma
MDA-MB-468 breast = tested on: MDA-MB-468 breast
MOLT-4 leukemia = tested on: MOLT-4 leukemia
NCI-H322M lung = tested on: NCI-H322M lung
NCI-H460 NSCLC = tested on: NCI-H460 NSCLC
NCI-H522 lung = tested on: NCI-H522 lung
OVCAR-3 ovarian = tested on: OVCAR-3 ovarian
OVCAR-4 ovarian = tested on: OVCAR-4 ovarian
OVCAR-5 ovarian = tested on: OVCAR-5 ovarian
SF-295 CNS = tested on: SF-295 CNS
SF-539 CNS = tested on: SF-539 CNS
SK-MEL-28 melanoma = tested on: SK-MEL-28 melanoma
SK-MEL-5 melanoma = tested on: SK-MEL-5 melanoma
SK-OV-3 ovarian = tested on: SK-OV-3 ovarian
SN12C renal = tested on: SN12C renal
SNB-19 CNS = tested on: SNB-19 CNS
T-47D breast = tested on: T-47D breast
TK-10 renal = tested on: TK-10 renal
U251 glioblastoma = tested on: U251 glioblastoma
UACC-257 melanoma = tested on: UACC-257 melanoma

What does the source list for `CC#CC(=O)N[C@H]1CCCN(c2c(F)cc(C(N)=O)c3[nH]c(C)c(C)c23)C1`?
GI50 ([…]-0 renal): 15.9 µM; TGI (786-0 renal): 33.2 µM; GI50 (A498 renal): 14.7 µM; TGI (A498 renal): 28.4 µM; GI50 (A549 NSCLC): 18.1 µM; TGI (A549 NSCLC): 37.9 µM; GI50 (CCRF-CEM leukemia): 16.9 µM; TGI (CCRF-CEM leukemia): 30.8 µM; GI50 (DU-145 prostate): 18.1 µM; TGI (DU-145 prostate): 37.2 µM; GI50 (HCC-2998 colon): 11.1 µM; TGI (HCC-2998 colon): 23.2 µM; GI50 (HCT-116 colon): 13.8 µM; TGI (HCT-116 colon): 27.3 µM; GI50 (HCT-15 colon): 10.8 µM; TGI (HCT-15 colon): 22.9 µM; GI50 (HOP-92 NSCLC): 15 µM; TGI (HOP-92 NSCLC): 33.7 µM; GI50 (K-562 leukemia): 15 µM; TGI (K-562 leukemia): 28.9 µM; GI50 (LOX IMVI melanoma): 15.4 µM; TGI (LOX IMVI melanoma): 28.9 µM; GI50 (MALME-3M melanoma): 18 µM; TGI (MALME-3M melanoma): 32 µM; GI50 (MDA-MB-435 melanoma): 17.2 µM; TGI (MDA-MB-435 melanoma): 34.1 µM; GI50 (MDA-MB-468 breast): 2880 nM; TGI (MDA-MB-468 breast): 11.1 µM; GI50 (MOLT-4 leukemia): 14 µM; TGI (MOLT-4 leukemia): 27.1 µM; GI50 (NCI-H322M lung): 16.2 µM; TGI (NCI-H322M lung): 30.9 µM; GI50 (NCI-H460 NSCLC): 15.8 µM; TGI (NCI-H460 NSCLC): 29.6 µM; GI50 (NCI-H522 lung): 4.54 µM; TGI (NCI-H522 lung): 17.5 µM; GI50 (OVCAR-3 ovarian): 14.5 µM; TGI (OVCAR-3 ovarian): 28 µM; GI50 (OVCAR-4 ovarian): 13.4 µM; TGI (OVCAR-4 ovarian): 26.6 µM; GI50 (OVCAR-5 ovarian): 16.9 µM; TGI (OVCAR-5 ovarian): 38.4 µM; GI50 (SF-295 CNS): 13.9 µM; TGI (SF-295 CNS): 26.9 µM; GI50 (SF-539 CNS): 15.3 µM; TGI (SF-539 CNS): 28.8 µM; GI50 (SK-MEL-28 melanoma): 18.5 µM; TGI (SK-MEL-28 melanoma): 33.1 µM; GI50 (SK-MEL-5 melanoma): 13.8 µM; TGI (SK-MEL-5 melanoma): 26.8 µM; GI50 (SK-OV-3 ovarian): 14.4 µM; TGI (SK-OV-3 ovarian): 34.3 µM; GI50 (SN12C renal): 14.9 µM; TGI (SN12C renal): 28.9 µM; GI50 (SNB-19 CNS): 17.3 µM; TGI (SNB-19 CNS): 32.4 µM; GI50 (T-47D breast): 5.36 µM; TGI (T-47D breast): 18.6 µM; GI50 (TK-10 renal): 21 µM; TGI (TK-10 renal): 58.6 µM; GI50 (U251 glioblastoma): 17.3 µM; TGI (U251 glioblastoma): 31.4 µM; GI50 (UACC-257 melanoma): 11.5 µM; TGI (UACC-257 melanoma): 23.7 µM
